Reference: patent US20220235343A1, “NOVEL ADP-RIBOSYL CYCLASE AND INHIBITOR THEREOF” (INDUSTRIAL COOPERATION FOUNDATION CHONBUK NATIONAL …, priority 2019, published 2022)

Experiments:
[1] = tested on: ADPRC activity and cADPR concentration in kidney tissue; experiment: ADPRC activity and cADPR concentration in kidney tissue of renal disease mouse model; format: in vivo; details: STZ mice, DCQA i.p. every day for 6 weeks
Experimental: The ADPRC activity and cADPR concentration in the kidney tissue of a renal disease mouse model were measured by the method reported by Kim S Y et al. [Kim S Y, Park K H, Gul R, Jang K Y, Kim U H. Am. J. Physiol. Renal Physiol. 296: F291-F297, 2009]
Specifically, 0.2 mL of 50 mM citrate buffer (pH 4.8) (control group and DCQA group) or 200 μL of 5 mg/mL streptozotocin (STZ, Sigma-Aldrich (USA)) dissolved in 50 mM citrate buffer (STZ group and STZ+DCQA group) was intraperitoneally injected to C57BL/6J mice. Blood glucose was measured from day 2 after the STZ injection and the mice whose blood glucose level was 300 mg/dL were divided into an STZ group and an STZ+DCQA group. […] In order to investigate the possibility as a therapeutic agent for a renal disease, the mouse was sacrificed and serum and kidney were taken.
After lysing some of the kidney tissue with a lysis buffer, 45 μL of the lysed sample was treated with 5 μL of 2 mM NGD (nicotinamide guanine dinucleotide) and reacted at 37° C. for 1 hour. Then, the enzyme-substrate reaction was stopped by treating with 50 μL of 10% trichloroacetic acid. After centrifuging for 10 minutes and adding 80 μL of the supernatant to 720 μL of a 0.1 M sodium phosphate buffer, absorbance was measured at 297 nm (excitation) and 410 nm (emission) with a fluorescence spectrometer (Hitachi, Japan). […]

[2] = tested on: hypertension mouse model (L-NAME, C57BL/6J mouse); experiment: Blood pressure and creatinine clearance rate in L-NAME hypertension mouse model; format: in vivo; details: DCQA 9 μg/mL 100 μL intraperitoneally every day for 7 days
Experimental: The blood pressure and creatinine clearance rate in a hypertension mouse model were measured by the method reported by Allagnat et al. [Allagnat F, Haefliger J A, Lambelet M, Longchamp A, Berard X, Mazzolai L, Corpataux J M, Deglise S. Eur. J. Vasc. Endovasc. Surg. 51: 733-742, 2016] and Kim S Y et al. [Kim S Y, Park K H, Gul R, Jang K Y, Kim U H. Am. J. Physiol. Renal Physiol. 296: F291-F297, 2009]
Specifically, 0.2 mL of 8 mg of L-NAME (Nw-nitro-L-arginine-methyl-ester, Sigma-Aldrich, USA) dissolved in 1 mL of saline was orally administered to C57BL/6J mouse every day. On days 7 and 14 of the oral administration, blood pressure was measured at the tail of the mouse. […] On day 6 after the DCQA treatment, the mouse was put in a metabolic cage and urine was collected for 24 hours.
After measuring the blood pressure of the mouse (FIG. 11A), the mouse was sacrificed and serum was obtained.
Creatinine clearance rate was calculated by measuring the creatinine levels in urine and serum using a creatinine assay kit (Bioassay Systems, USA) (FIG. 11B).

[3] = target: T1, new ADP-ribosyl cyclase (ADPRC) of SEQ ID NO 1 (Mus musculus, UniProt P14094); experiment: Inhibition of NAD glycohydrolase (NADase) activity of new ADPRC; format: biochemical; details: as compared to the control group; ε-NAD substrate, 37° C. 1 hour; inhibitor concentration not given; FIG. 5
T1 construct: FLAG (N); made in house; host or cells: HEK293 cells or MES13 cells (transient transfection)
Experimental: In order to investigate the ADP-ribosyl cyclase (ADPRC) activity of SEQ ID NO 1, a FLAG-ADPRC plasmid was prepared by ligating a cDNA sequence encoding ADPRC into a FLAG-CMV-2 vector and the overexpression of new ADPRC was induced by treating HEK293 cells or MES13 cells using a transfection reagent. The overexpressed new ADPRC was lysed with a lysis buffer. 45 μL of the lysed sample was treated with 5 μL of 2 mM ε-NAD (nicotinamide 1,N6-ethenoadenine dinucleotide) and incubated at 37° C. for 1 hour. Then, the enzyme-substrate reaction was stopped by treating with 50 μL of 10% trichloroacetic acid. After centrifuging for 10 minutes and adding 80 μL of the supernatant to 720 μL of 0.1 M sodium phosphate buffer, absorbance was measured at 297 nm (excitation) and 410 nm (emission) with a fluorescence spectrometer.
In order to find an inhibitor which inhibits the activation of new ADP-ribosyl cyclase (ADPRC) of SEQ ID NO 1, 5 μL of each of 4,4′-dihydroxyazobenzene (4-DHAB, TCI (Japan)), 2,2′-dihydroxyazobenzene (2-DAB, Sigma-Aldrich (USA)), 2-(3,4-dihydroxyphenyl)-3,5,7-trihydroxychromen-4-one (Quercetin, Sigma-Aldrich (USA)) and San4825 (synthesized by Kannt A et al. [Kannt A, Sicka K, Kroll K, Kadereit D, Gogelein H. Naunyn. Schmiedebergs. Arch. Pharmacol. 385: 717-727, 2012], China) and 2-(1,3-benzoxazol-2-ylamino)-1-methylquinazoline-4(1H)-one (2-BMQ) and 1,4-dicaffeoylquinic acid (1,4-DCQA, Biopurify (China), hereinafter DCQA), which were newly found through screening, was reacted with 40 μL of new ADPRC in iced water for 15 minutes. Then, reaction was conducted at 37° C. for 1 hour after treating with 5 μL of 2 mM ε-NAD (nicotinamide 1,N6-ethenoadenine dinucleotide). Then, the enzyme-substrate reaction was stopped by treating with 50 μL of 10% trichloroacetic acid. After centrifuging for 10 minutes and adding 80 μL of the supernatant to 720 μL of 0.1 M sodium phosphate buffer, absorbance was measured at 297 nm (excitation) and 410 nm (emission) using a fluorescence spectrometer.

NAD glycohydrolase (NADase) activity inhibited [3]: 79.64%
SMILES: O=C(/C=C/c1ccc(O)c(O)c1)OC1[C@H](O)CC(OC(=O)/C=C/c2ccc(O)c(O)c2)(C(=O)O)C[C@H]1O (some centres unmarked) [DCQA, 1,4-dicaffeoylquinic acid]
cADPR concentration in kidney tissue ([1]; FIG. 7B): decreased the cADPR concentration increased by STZ to the level of the control group
ADP-ribosyl cyclase activity in kidney tissue ([1]; NGD substrate, FIG. 7A): decreased the ADP-ribosyl cyclase activity increased by STZ to the level of the control group
blood pressure ([2]; FIG. 11A): no effect of lowering blood pressure
creatinine clearance rate ([2]; FIG. 11B): increase in creatinine clearance rate
